Measurements taken from patent publication US7371745B2, “Bis-transition-metal-chelate probes” (Rutgers, The State University of New Jersey, priority 2002, dated 2008).
Values joined by “and” are separate entries in the source; they are usually repeats but may differ in a detail not shown here. Equal values may be shown once.

How the values were obtained:
(CAP-His6)-DNA^F complex [1] = molecular target: T1, (CAP-His6)-DNA^F complex (Escherichia coli, UniProt P0ACJ8); details: control titration with the CAP-DNA^F complex
Protocol: FRET assays using the probes according to the invention then were performed to verify interactions, to detect a target material, and to measure an intermolecular distance.
Reaction mixtures (200 μl, in 50 μl quartz micro-cuvettes (Starna)) contained 5 nM DNA^F and 50 nM CAP-His6 (or CAP) in buffer C. […] Fluorescence emission was determined at the start of the titration and 5 min after each successive addition in the titration. All solutions were maintained at 25° C.
Fluorescence emission intensities, F, were measured using a commercial steady-state fluorescence instrument (QM-1, PTI) equipped with T-format Glan-Thompson polarizers (PTI) set at 54.7° (“magic angle”).
Data were plotted as E vs. titrant concentration, and binding curves and equilibrium dissociation constants were calculated using non-linear regression (as described in Gunasekera, A. et al., J. Biol. Chem., 267:14,713-14,720 (1992)).

CAP-His6 = CAP-His6 (Escherichia coli, UniProt P0ACJ8); details: control titration with CAP (no His6 tag)
Protocol: Formation of a complex of the probe with a His6-tagged protein was detected as an increase in fluorescence anisotropy, A, arising from the increase in molecular size and corresponding decrease in rotational dynamics.
Reaction mixtures were titrated with 0-3 μM CAP-His6 (or CAP) by successive addition of 0.5-4 μl aliquots of 2-4 μM CAP-His6 (or CAP) in the same buffer. Fluorescence anisotropy was determined at the start of the titration and 5 min after each successive addition in the titration. All solutions were maintained at 25° C.
Fluorescence measurements were performed using a commercial steady-state fluorescence instrument (QM-1, PTI) equipped with T-format Glan-Thompson polarizers (PTI). […] Slit widths were 10 nm. Fluorescence emission intensities were corrected for background by subtraction of fluorescence emissions intensities for control reactions containing identical concentrations of CAP-His6 or CAP but not containing probe.
Fluorescence anisotropy, A, was calculated using: A=(IVV−GIVH)/(IVV+2GVH) where IVV and IVH are the fluorescent intensities with the excitation polarizer at a vertical position and the emission polarizers at vertical and horizontal positions, respectively, and G is the grating correction factor. […] Equilibrium dissociation constants were calculated using linear regression.

[2] = Spectroscopic properties of the fluorochromes; format: physicochemical
(CAP-His6)-DNA^F complex [3] = molecular target: T1, (CAP-His6)-DNA^F complex; details: for donor-acceptor distance, R: fluorescein on DNA^F to probe on His6 of CAP-His6

T1 sequence (P0ACJ8 2-210, added parts left off, one chain of several): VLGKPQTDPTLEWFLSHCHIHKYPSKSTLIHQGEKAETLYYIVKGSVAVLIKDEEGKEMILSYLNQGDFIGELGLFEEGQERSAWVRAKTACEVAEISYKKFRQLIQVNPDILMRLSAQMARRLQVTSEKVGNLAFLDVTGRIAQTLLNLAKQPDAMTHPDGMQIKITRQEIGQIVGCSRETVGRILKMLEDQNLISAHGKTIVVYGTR
Chain of CAP-His6 (P0ACJ8 2-210, added parts left off): as the sequence (P0ACJ8 2-210, added parts left off, one chain of several) above

Substance: (Ni^2+-NTA)2-Cy3
- specificity ((CAP-His6)-DNA^F complex [1]): > 95%
- specificity (CAP-His6): > 95%
- quantum yield (Q) [2]: 0.04
- λmax, em [2]: 565 nm
- λmax, exc [2]: 552 nm
- donor-acceptor distance, R ((CAP-His6)-DNA^F complex [3]): 58 Å

Substance: (Ni^2+-NTA)2-Cy5
- specificity ((CAP-His6)-DNA^F complex [1]): > 95%
- specificity (CAP-His6): > 95%
- quantum yield (Q) [2]: 0.05
- λmax, em [2]: 668 nm
- λmax, exc [2]: 650 nm
- efficiency of FRET at saturation, Esat ((CAP-His6)-DNA^F complex [3]; fluorescein donor on DNA^F, probe as acceptor): 0.45 and 0.25
- donor-acceptor distance, R ((CAP-His6)-DNA^F complex [3]): 53 Å
